Structures can show the parent of a compound that is named as a salt.
Tests used:
[1] = Volume of distribution (VD) after oral dosing, pharmacokinetic model; type: in vivo, dog; conditions: VD=Clearance/K; Clearance=Dose/AUC following oral dosing; compounds of the invention
From the text: Many of the antithrombotic compounds disclosed in the prior art are lipophilic and, therefore, undergo high volumes of distribution from the plasma component and into the tissues. Since thrombin resides in the plasma, this tissue distribution is not preferred. […] Data in Table 1 below confirms that the compounds of the present invention have lower volumes of distribution and, therefore, better pharmacokinetic properties than their corresponding compounds of formula I in which R^d is hydrogen.
The Volume of Distribution (VD) was calculated according to the standard equation:
where Clearance=Dose (ug)/AUC (ug/ml) where AUC is the amount of drug present in plasma following oral dosing and is measured as the area under a curve of drug concentration versus time. K(h^−1) is the elimination rate constant.
Test compound is formulated immediately prior to dosing by dissolving in sterile 0.9 percent saline to a 5 mg/mL preparation. Dogs are given a single 2 mg/kg dose of test compound by oral gavage. Blood samples (4.5 mL) are taken from the cephalic vein at 0.25, 0.5, 0.75, 1, 2, 3, 4 and 6 hours after dosing. Samples are collected in citrated Vacutainer tubes and kept on ice prior to reduction to plasma by centrifugation. Plasma samples are analyzed by HPLC MS. Plasma concentration of test compound is recorded and used to calculate the pharmacokinetic parameters: elimination rate constant, Ke; total clearance, Clt; volume of distribution, VD; time of maximum plasma test compound concentration, Tmax; maximum concentration of test compound of Tmax, Cmax; plasma half-life, t0.5; and area under the curve, A.U.C.; fraction of test compound absorbed, F.

| SMILES | VD [1] | melting point |
| --- | --- | --- |
| O=C([O-])CCCOc1ccc(-c2sc3ccccc3c2Cc2ccc(OCCN3CCCC3)cc2)cc1C(=O)[O-].[Na+].[Na+] [Example 2, 2-(3-Carboxypropoxy)-5-[3-[4-[2-(1-pyrrolidinyl)ethoxy]benzyl]benzo[b]thiophen-2-yl]benzoic Acid Disodium Salt] | 0.46 L/kg | > 250 °C |
| NC(=O)CCCOc1cc(-c2sc3ccccc3c2Cc2ccc(OCCN3CCCC3=O)cc2)ccc1OCCN1CCCC1 [Example 8, 2-[3-(4-Amino-4-oxobutoxy)-4-[2-(1-pyrrolidinyl)ethoxy]phenyl]-3-[4-[2-(2-oxopyrrolidin-1-yl)ethoxy]-benzyl]benzo[b]thiophene Oxalate] | 13.53 L/kg | – |
| O=C([O-])c1cc(-c2sc3ccccc3c2Cc2ccc(OCCN3CCCC3)cc2)ccc1OCCN1CCCC1.[Na+] [Example 1, 2-[2-(1-Pyrrolidinyl)ethoxy]-5-[3-[4-[2-(1-pyrrolidinyl)ethoxy]benzyl]benzo[b]thiophen-2-yl]benzoic Acid Sodium Salt] | 1.27 L/kg | 253 to 255 °C (dec.) |
| COC(=O)CCCOc1ccc(-c2sc3ccccc3c2Cc2ccc(OCCN3CCCC3)cc2)cc1C(N)=O [Example 4, 2-(3-Carbomethoxypropoxy)-5-[3-[4-[2-(1-pyrrolidinyl)ethoxy]benzyl]benzo[b]thiophen-2-yl]benzamide Oxalate Salt] | 3.36 L/kg | – |
| O=C([O-])CCCOc1cc(-c2sc3ccccc3c2C(=O)c2ccc(OCCN3CCCC3=O)cc2)ccc1OCCN1CCCC1.[Li+] [Example 11] | 5.13 L/kg | – |

— patent US6620837B1, “Antithrombotic agents” (Eli Lilly and Company, priority 1999, dated 2003)
